The test system of assay [1] is A. tuberculatus F1(R) hybrid (maternal parent R). The assay can be described thus: Herbicide dose-response on whole plants, F1(R) line. Type of assay: in vivo, Amaranthus tuberculatus (waterhemp). The settings on record: for GR50 (growth reduction by 50%) F1(R): F1(R) line.
In assay [2] the test system is A. tuberculatus F1(S) hybrid (maternal parent S). The assay can be described thus: Herbicide dose-response on whole plants, F1(S) line. It counts as in vivo, Amaranthus tuberculatus (waterhemp).
Assay [3] relates to A. tuberculatus PPO2L with glycine at position 210 expressed in E. coli SASX38. Type of assay: cell-based. Particulars: LB with lactofen (100 nM, FIG. 6), 37° C., 14 hrs.

On to `CCOC(=O)C(C)OC(=O)c1cc(Oc2ccc(C(F)(F)F)cc2Cl)ccc1[N+](=O)[O-]` (racemic) [Lactofen, (±)-2-ethoxy-1-methyl-2-oxoethyl 5-{2-chloro-4-(trifluoromethyl)phenoxy}-2-nitrobenzoate], for which the entries for the “GR50 (growth reduction by 50%) F1(R)” value in assay [1] (10 DAT) and in assay [1] (15 DAT) were 0.7 g ai ha^−1 and 12 g ai ha^−1, respectively. Further, the “fold higher doses survived compared with S plants” value in assay [1] (lines heterozygous for resistance vs S plants (FIG. 2; Table 2)) amounted to 31 fold. Moreover, the “GR50 (growth reduction by 50%) F1(S)” value turned out to be 1.6 g ai ha^−1 in assay [2] (10 DAT) and 13 g ai ha^−1 in assay [2] (15 DAT). Moreover, the “growth of E. coli on lactofen-supplemented medium” value in assay [3] was “dramatically inhibited growth”.
Turning to `O=C(O)c1cc(Oc2ccc(C(F)(F)F)cc2Cl)ccc1[N+](=O)[O-]` [Acifluorfen, 5-{2-chloro-4-(trifluoromethyl)phenoxy}-2-nitrobezoic acid], in assay [1] (10 DAT), the “GR50 (growth reduction by 50%) F1(R)” value is listed as 3.8 g ai ha^−1. For the same compound, in assay [2] (10 DAT), the “GR50 (growth reduction by 50%) F1(S)” value is 4.1 g ai ha^−1.

The record behind these values is US7842856B2, “Herbicide resistance gene, compositions and methods” (The Board of Trustees of the University of Illinois, priority 2005, dated 2010).
